Data from the supplement of paper PMC11451515.

What was measured:
Conditions in all cases: 48 h
NOMO1 [1] = assay: cell viability relative to DMSO control; higher = less cytotoxic
Method in brief: (§1)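 Viability is a per-plate percentage relative to DMSO wells, with cell-free wells as background. CellTiter-Glo One luminescence was read after 48 h at 37°C on 1536-well plates (5 μl) of NOMO1 or SEM (500 cells/well) or P12-Ichikawa (1000 cells/well) leukemia cells. The cells had been adapted for at least four passages in each medium and pin-dosed with library compounds in DMSO from 47 μM to 0.79 nM in 11 threefold steps.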

P12-Ichikawa [2] = assay: as above
Method in brief: as §1

SEM cells [3] = assay: as above
Method in brief: as §1

NOMO1 [4] = assay: AUC of viability dose-response curve (% viability x log10 dose units); higher = less sensitive
Method in brief: (§2)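 Over 48 h at 37°C, leukemia cells in 1536-well plates (500 or 1000 cells/well), adapted to each medium, received library compounds in DMSO at 11 threefold doses from 47 μM to 0.79 nM. CellTiter-Glo One luminescence, normalised per plate to DMSO and cell-free wells, was fitted by a four-parameter log-logistic function of log10 dose. The area under the curve was then integrated by trapezoidal rule, after scaling curves above full viability and removing those that failed quality control.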

P12-Ichikawa [5] = assay: as above
Method in brief: as §2

SEM cells [6] = assay: as above
Method in brief: as §2

CCNC(=O)Nc1ccc(Oc2ncnc(N)c2/C=N/OC)cc1Cl
cell viability [%]
Conditions | NOMO1 [1] | P12-Ichikawa [2] | SEM cells [3]
HPLM + 10% dialyzed FBS, 0.000781 µM | 104 | 107 | 96.9
HPLM + 10% dialyzed FBS, 0.00234 µM | 113 | 114 | 100
HPLM + 10% dialyzed FBS, 0.00702 µM | 111 | 107 | 99.8
HPLM + 10% dialyzed FBS, 0.0211 µM | 115 | 116 | 105
HPLM + 10% dialyzed FBS, 0.0632 µM | 109 | 123 | 110
HPLM + 10% dialyzed FBS, 0.19 µM | 113 | 119 | 112
HPLM + 10% dialyzed FBS, 0.569 µM | 133 | 119 | 117
HPLM + 10% dialyzed FBS, 1.71 µM | 125 | 118 | 73.5
HPLM + 10% dialyzed FBS, 5.12 µM | 127 | 106 | 78.5
HPLM + 10% dialyzed FBS, 15.4 µM | 105 | 101 | 68.1
HPLM + 10% dialyzed FBS, 46.1 µM | 111 | 120 | 83.1
RPMI 5 mM glucose + 10% FBS, 0.000781 µM | 112 | 111 | 75.3
RPMI 5 mM glucose + 10% FBS, 0.00234 µM | 118 | 113 | 84.1
RPMI 5 mM glucose + 10% FBS, 0.00702 µM | 114 | 117 | 75.5
RPMI 5 mM glucose + 10% FBS, 0.0211 µM | 115 | 117 | 78.7
RPMI 5 mM glucose + 10% FBS, 0.0632 µM | 119 | 121 | 74.9
RPMI 5 mM glucose + 10% FBS, 0.19 µM | 113 | 128 | 79.5
RPMI 5 mM glucose + 10% FBS, 0.569 µM | 113 | 126 | 70.5
RPMI 5 mM glucose + 10% FBS, 1.71 µM | 121 | 121 | 37.4
RPMI 5 mM glucose + 10% FBS, 5.12 µM | 118 | 117 | 70
RPMI 5 mM glucose + 10% FBS, 15.4 µM | 124 | 111 | 44.8
RPMI 5 mM glucose + 10% FBS, 46.1 µM | 122 | 131 | 56.8
RPMI 5 mM glucose + 10% dialyzed FBS, 0.000781 µM | 90.2 | 106 | 99.5
RPMI 5 mM glucose + 10% dialyzed FBS, 0.00234 µM | 113 | 116 | 103
RPMI 5 mM glucose + 10% dialyzed FBS, 0.00702 µM | 98.1 | 119 | 111
RPMI 5 mM glucose + 10% dialyzed FBS, 0.0211 µM | 101 | 122 | 111
RPMI 5 mM glucose + 10% dialyzed FBS, 0.0632 µM | 114 | 124 | 108
RPMI 5 mM glucose + 10% dialyzed FBS, 0.19 µM | 109 | 123 | 117
RPMI 5 mM glucose + 10% dialyzed FBS, 0.569 µM | 117 | 118 | 111
RPMI 5 mM glucose + 10% dialyzed FBS, 1.71 µM | 112 | 122 | 55.9
RPMI 5 mM glucose + 10% dialyzed FBS, 5.12 µM | 103 | 119 | 75.4
RPMI 5 mM glucose + 10% dialyzed FBS, 15.4 µM | 109 | 107 | 56
RPMI 5 mM glucose + 10% dialyzed FBS, 46.1 µM | 125 | 107 | 74.7

AUC of viability dose-response curve
Conditions | HPLM + 10% dialyzed FBS | RPMI 5 mM glucose + 10% FBS | RPMI 5 mM glucose + 10% dialyzed FBS
NOMO1 [4] | 460 | 459 | 441
P12-Ichikawa [5] | 477 | 458 | 471

CN1CCc2c(n(Cc3ccc(C(=O)NO)cc3)c3ccccc23)C1
AUC of viability dose-response curve
Conditions | NOMO1 [4] | P12-Ichikawa [5] | SEM cells [6]
HPLM + 10% dialyzed FBS | 452 | 448 | 443
RPMI 5 mM glucose + 10% FBS | 440 | 453 | 442
RPMI 5 mM glucose + 10% dialyzed FBS | 449 | 451 | 452

CC1(COc2ccc3c(c2)ncn3-c2ccc3cccc(N4CCC(N)CC4)c3n2)COC1
cell viability [%], SEM cells [3]
Conditions | HPLM + 10% dialyzed FBS | RPMI 5 mM glucose + 10% FBS | RPMI 5 mM glucose + 10% dialyzed FBS
0.000781 µM | 91.2 | 114 | 99.8
0.00234 µM | 96.7 | 101 | 99.7
0.00702 µM | 81.3 | 94 | 73.6
0.0211 µM | 62.7 | 64.9 | 59.6
0.0632 µM | 38.9 | 28.8 | 33.8
0.19 µM | 56.3 | 49.8 | 51.1
0.569 µM | 54.4 | 49.5 | 47.4
1.71 µM | 44.1 | 40.5 | 48.2
5.12 µM | 26.4 | 18.1 | 20
15.4 µM | 28.7 | 16.4 | 20.2
46.1 µM | 6.33 | 5.26 | 6.44

AUC of viability dose-response curve
Conditions | HPLM + 10% dialyzed FBS | RPMI 5 mM glucose + 10% FBS | RPMI 5 mM glucose + 10% dialyzed FBS
P12-Ichikawa [5] | 392 | 403 | 418
SEM cells [6] | 254 | 216 | 240

Cc1cc(NC(=O)Nc2ccc(N(C)C)cc2)c2cc(F)cc(F)c2n1
AUC of viability dose-response curve
Conditions | NOMO1 [4] | P12-Ichikawa [5] | SEM cells [6]
HPLM + 10% dialyzed FBS | 457 | 475 | 465
RPMI 5 mM glucose + 10% FBS | 466 | 461 | 468
RPMI 5 mM glucose + 10% dialyzed FBS | 440 | 454 | 448

C[S+](=O)([O-])c1ccc([C@@H](O)[C@@H](CO)NC(=O)C(Cl)Cl)cc1
AUC of viability dose-response curve
Conditions | NOMO1 [4] | P12-Ichikawa [5] | SEM cells [6]
HPLM + 10% dialyzed FBS | 445 | 456 | 432
RPMI 5 mM glucose + 10% FBS | 476 | 431 | 421
RPMI 5 mM glucose + 10% dialyzed FBS | 455 | 420 | 450

CCn1c(=O)c2c(nc(/C=C/c3ccc(OC)c(OC)c3)n2C)n(CC)c1=O
AUC of viability dose-response curve
Conditions | NOMO1 [4] | P12-Ichikawa [5] | SEM cells [6]
HPLM + 10% dialyzed FBS | 425 | 467 | 470
RPMI 5 mM glucose + 10% FBS | 424 | 451 | 463
RPMI 5 mM glucose + 10% dialyzed FBS | 436 | 464 | 472

Nc1cccc([S+](=O)([O-])N2CCCN([S+](=O)([O-])c3ccc4c(c3)OCCO4)CC2)c1
AUC of viability dose-response curve
Conditions | NOMO1 [4] | P12-Ichikawa [5] | SEM cells [6]
HPLM + 10% dialyzed FBS | 445 | 444 | 460
RPMI 5 mM glucose + 10% FBS | 464 | 464 | 434
RPMI 5 mM glucose + 10% dialyzed FBS | 447 | 460 | 437
